# Reference: patent US9439432B2, “Phenylisoxazoline-based compound having herbicidal activity and use thereof” (MOGHU RESEARCH CENTER LTD, priority 2011, dated 2016)
# Legend:
# Format in all cases: in vivo
# Corn [1] = test: Pre-emergence treatment, phytotoxicity to corn; settings: 500 g/ha, 4 weeks after spraying, scale 0 to 10 (0: no effects, 10: complete death)
# Method: (§1) A rectangular plastic pot having a surface area of 300 cm^2 was filled with sandy loam soil and mixed bed soil which were mixed at a ratio of 1:1, and then, barnyardrass (Echinochloa crusgalli), large crabgrass (Digitaria sanguinalis), blackgrass (Alopecurus myosuroides), and annual bluegrass (Poa annua), which are grass weeds, were seeded thereto. In a pot that was prepared as described above, seeds of corn, soybean, cotton, wheat, and rice were seeded. The pots were irrigated, and one day after, chemicals were sprayed thereto. The spraying was performed by using a track sprayer (R&D Sprayer, USA) equipped with a Teejet 8002 (Spraying Systems Co., USA) nozzle, and a spraying amount was adjusted at 300 L/ha. A spraying solution was prepared by dissolving test materials or references in acetone and adding the same amount of 0.2%(v/v) tween 20 aqueous solution thereto. Application rates were 500, 250, 125, and 62.5 g/ha. The pots were placed in a greenhouse in which during day, the temperature was maintained at a temperature of 25 to 30° C., and during night, the temperature was maintained at a temperature of 15 to 25° C., and the pots were periodically irrigated. Four weeks after the spraying the test materials or References, effects and phytotoxicity of the respective weeds and crops were evaluated in a scale of 0 to 10 (0: no effects, 10: complete death), and results thereof are shown in Table 4 below.
# Soybean [2] = test: Pre-emergence treatment, phytotoxicity to soybean; settings: 500 g/ha, 4 weeks after spraying, scale 0 to 10 (0: no effects, 10: complete death)
# Method: as §1
# Cotton [3] = test: Pre-emergence treatment, phytotoxicity to cotton; settings: 500 g/ha, 4 weeks after spraying, scale 0 to 10 (0: no effects, 10: complete death)
# Method: as §1
# Wheat [4] = test: Pre-emergence treatment, phytotoxicity to wheat; settings: 500 g/ha, 4 weeks after spraying, scale 0 to 10 (0: no effects, 10: complete death)
# Method: as §1
# Rice [5] = test: Pre-emergence treatment, phytotoxicity to rice; settings: 500 g/ha, 4 weeks after spraying, scale 0 to 10 (0: no effects, 10: complete death)
# Method: as §1
# Echinochloa crusgalli [6] = test: Pre-emergence treatment, herbicidal efficacy on barnyardgrass; settings: 4 weeks after spraying
# Method: as §1
# Digitaria sanguinalis [7] = test: Pre-emergence treatment, herbicidal efficacy on large crabgrass; settings: 4 weeks after spraying, scale 0 to 10
# Method: as §1
# Poa annua [8] = test: Pre-emergence treatment, herbicidal efficacy on annual bluegrass; settings: 4 weeks after spraying, scale 0 to 10
# Method: as §1
# Alopecurus myosuroides [9] = test: Pre-emergence treatment, herbicidal efficacy on blackgrass; settings: 4 weeks after spraying, scale 0 to 10
# Method: as §1
# Corn [10] = test: Post-emergence treatment, phytotoxicity to corn; settings: post-emergence (about 3 leaf stage), 1,000 g/ha, 4 weeks after spraying, scale 0 to 10 (0: no effects, 10: complete death)
# Method: as §1
# (§2) Pots containing crops and weeds were prepared in the same manner as in Example 7, and then, in the second week in which crops and weeds entered into about 3 leaf stage, the test materials and the references were sprayed thereto in the same manner as described above. The rates were 1,000, 500, 250, and 125 g/ha. Four weeks after the spraying of the test materials or the references, herbicidal efficacy and phytotoxicity to the respective weeds and crops were evaluated in a scale of 0 to 10 (0: no effects, 10: complete death).
# Soybean [11] = test: Post-emergence treatment, phytotoxicity to soybean; settings: post-emergence (about 3 leaf stage), 1,000 g/ha, 4 weeks after spraying, scale 0 to 10 (0: no effects, 10: complete death)
# Method: as §1, §2
# Cotton [12] = test: Post-emergence treatment, phytotoxicity to cotton; settings: post-emergence (about 3 leaf stage), 1,000 g/ha, 4 weeks after spraying, scale 0 to 10 (0: no effects, 10: complete death)
# Method: as §1, §2
# Wheat [13] = test: Post-emergence treatment, phytotoxicity to wheat; settings: post-emergence (about 3 leaf stage), 1,000 g/ha, 4 weeks after spraying, scale 0 to 10 (0: no effects, 10: complete death)
# Method: as §1, §2
# Rice [14] = test: Post-emergence treatment, phytotoxicity to rice; settings: post-emergence (about 3 leaf stage), 1,000 g/ha, 4 weeks after spraying, scale 0 to 10 (0: no effects, 10: complete death)
# Method: as §1, §2
# Echinochloa crusgalli [15] = test: Post-emergence treatment, herbicidal efficacy on barnyardgrass; settings: 4 weeks after spraying, scale 0 to 10
# Method: as §1, §2
# Digitaria sanguinalis [16] = test: Post-emergence treatment, herbicidal efficacy on large crabgrass; settings: 4 weeks after spraying, scale 0 to 10
# Method: as §1, §2
# Poa annua [17] = test: Post-emergence treatment, herbicidal efficacy on annual bluegrass; settings: 4 weeks after spraying, scale 0 to 10
# Method: as §1, §2
# Alopecurus myosuroides [18] = test: Post-emergence treatment, herbicidal efficacy on blackgrass; settings: 4 weeks after spraying, scale 0 to 10
# Method: as §1, §2
# [19] = 500 g/ha, scale 0 to 10 (0: no effects, 10: complete death)
compound,measurement,setting,value
Cc1ccccc1C1=NOC(C)(COCc2c(F)cccc2Cl)C1 (stereo not drawn) [Reference E],"Phytotoxicity, Corn",Corn [1],0
same,"Phytotoxicity, Soybean",Soybean [2],0
same,"Phytotoxicity, Cotton",Cotton [3],0
same,"Phytotoxicity, Wheat",Wheat [4],0
same,"Phytotoxicity, Rice",Rice [5],0
same,"Herbicidal efficacy, Echinochloa crusgalli","Echinochloa crusgalli [6]; 62.5 g/ha, scale 0 to 10",2
same,"Herbicidal efficacy, Echinochloa crusgalli","Echinochloa crusgalli [6]; 125 g/ha, scale 0 to 10",5
same,"Herbicidal efficacy, Echinochloa crusgalli","Echinochloa crusgalli [6]; 250 g/ha, scale 0 to 10",8
same,"Herbicidal efficacy, Echinochloa crusgalli",Echinochloa crusgalli [6]; [19],10
same,"Herbicidal efficacy, Digitaria sanguinalis",Digitaria sanguinalis [7]; 62.5 g/ha,0
same,"Herbicidal efficacy, Digitaria sanguinalis",Digitaria sanguinalis [7]; 125 g/ha,5
same,"Herbicidal efficacy, Digitaria sanguinalis",Digitaria sanguinalis [7]; 250 g/ha,9
same,"Herbicidal efficacy, Digitaria sanguinalis",Digitaria sanguinalis [7]; 500 g/ha,10
same,"Herbicidal efficacy, Poa annua",Poa annua [8]; 62.5 g/ha,2
same,"Herbicidal efficacy, Poa annua",Poa annua [8]; 125 g/ha,5
same,"Herbicidal efficacy, Poa annua",Poa annua [8]; 250 g/ha,9
same,"Herbicidal efficacy, Poa annua",Poa annua [8]; 500 g/ha,10
same,"Herbicidal efficacy, Alopecurus myosuroides",Alopecurus myosuroides [9]; 62.5 g/ha,0
same,"Herbicidal efficacy, Alopecurus myosuroides",Alopecurus myosuroides [9]; 125 g/ha,0
same,"Herbicidal efficacy, Alopecurus myosuroides",Alopecurus myosuroides [9]; 250 g/ha,4
same,"Herbicidal efficacy, Alopecurus myosuroides",Alopecurus myosuroides [9]; 500 g/ha,9
same,"Phytotoxicity, Corn",Corn [10],3
same,"Phytotoxicity, Soybean",Soybean [11],1
same,"Phytotoxicity, Cotton",Cotton [12],3
same,"Phytotoxicity, Wheat",Wheat [13],0
same,"Phytotoxicity, Rice",Rice [14],0
same,"Herbicidal efficacy, Echinochloa crusgalli","Echinochloa crusgalli [15]; post-emergence, 125 g/ha",0
same,"Herbicidal efficacy, Echinochloa crusgalli","Echinochloa crusgalli [15]; post-emergence, 250 g/ha",2
same,"Herbicidal efficacy, Echinochloa crusgalli","Echinochloa crusgalli [15]; post-emergence, 500 g/ha",5
same,"Herbicidal efficacy, Echinochloa crusgalli","Echinochloa crusgalli [15]; post-emergence, 1,000 g/ha",6
same,"Herbicidal efficacy, Digitaria sanguinalis","Digitaria sanguinalis [16]; post-emergence, 125 g/ha",0
same,"Herbicidal efficacy, Digitaria sanguinalis","Digitaria sanguinalis [16]; post-emergence, 250 g/ha",1
same,"Herbicidal efficacy, Digitaria sanguinalis","Digitaria sanguinalis [16]; post-emergence, 500 g/ha",6
same,"Herbicidal efficacy, Digitaria sanguinalis","Digitaria sanguinalis [16]; post-emergence, 1,000 g/ha",7
same,"Herbicidal efficacy, Poa annua","Poa annua [17]; post-emergence, 125 g/ha",0
same,"Herbicidal efficacy, Poa annua","Poa annua [17]; post-emergence, 250 g/ha",2
same,"Herbicidal efficacy, Poa annua","Poa annua [17]; post-emergence, 500 g/ha",6
same,"Herbicidal efficacy, Poa annua","Poa annua [17]; post-emergence, 1,000 g/ha",7
same,"Herbicidal efficacy, Alopecurus myosuroides","Alopecurus myosuroides [18]; post-emergence, 125 g/ha",0
same,"Herbicidal efficacy, Alopecurus myosuroides","Alopecurus myosuroides [18]; post-emergence, 250 g/ha",0
same,"Herbicidal efficacy, Alopecurus myosuroides","Alopecurus myosuroides [18]; post-emergence, 500 g/ha",2
same,"Herbicidal efficacy, Alopecurus myosuroides","Alopecurus myosuroides [18]; post-emergence, 1,000 g/ha",4
Cc1cccc(C2=NOC(C)(COCc3c(F)cccc3F)C2)c1 (stereo not drawn) [Reference F],"Phytotoxicity, Corn",Corn [1],1
same,"Phytotoxicity, Soybean",Soybean [2],0
same,"Phytotoxicity, Cotton",Cotton [3],0
same,"Phytotoxicity, Wheat",Wheat [4],0
same,"Phytotoxicity, Rice",Rice [5],0
same,"Herbicidal efficacy, Echinochloa crusgalli","Echinochloa crusgalli [6]; 62.5 g/ha, scale 0 to 10",0
same,"Herbicidal efficacy, Echinochloa crusgalli","Echinochloa crusgalli [6]; 125 g/ha, scale 0 to 10",1
same,"Herbicidal efficacy, Echinochloa crusgalli","Echinochloa crusgalli [6]; 250 g/ha, scale 0 to 10",5
same,"Herbicidal efficacy, Echinochloa crusgalli",Echinochloa crusgalli [6]; [19],10
same,"Herbicidal efficacy, Digitaria sanguinalis",Digitaria sanguinalis [7]; 62.5 g/ha,1
same,"Herbicidal efficacy, Digitaria sanguinalis",Digitaria sanguinalis [7]; 125 g/ha,2
same,"Herbicidal efficacy, Digitaria sanguinalis",Digitaria sanguinalis [7]; 250 g/ha,6
same,"Herbicidal efficacy, Digitaria sanguinalis",Digitaria sanguinalis [7]; 500 g/ha,10
same,"Herbicidal efficacy, Poa annua",Poa annua [8]; 62.5 g/ha,0
same,"Herbicidal efficacy, Poa annua",Poa annua [8]; 125 g/ha,0
same,"Herbicidal efficacy, Poa annua",Poa annua [8]; 250 g/ha,5
same,"Herbicidal efficacy, Poa annua",Poa annua [8]; 500 g/ha,9
same,"Herbicidal efficacy, Alopecurus myosuroides",Alopecurus myosuroides [9]; 62.5 g/ha,0
same,"Herbicidal efficacy, Alopecurus myosuroides",Alopecurus myosuroides [9]; 125 g/ha,0
same,"Herbicidal efficacy, Alopecurus myosuroides",Alopecurus myosuroides [9]; 250 g/ha,0
same,"Herbicidal efficacy, Alopecurus myosuroides",Alopecurus myosuroides [9]; 500 g/ha,3
same,"Phytotoxicity, Corn",Corn [10],2
same,"Phytotoxicity, Soybean",Soybean [11],0
same,"Phytotoxicity, Cotton",Cotton [12],0
same,"Phytotoxicity, Wheat",Wheat [13],0
same,"Phytotoxicity, Rice",Rice [14],0
same,"Herbicidal efficacy, Echinochloa crusgalli","Echinochloa crusgalli [15]; post-emergence, 125 g/ha",0
same,"Herbicidal efficacy, Echinochloa crusgalli","Echinochloa crusgalli [15]; post-emergence, 250 g/ha",3
same,"Herbicidal efficacy, Echinochloa crusgalli","Echinochloa crusgalli [15]; post-emergence, 500 g/ha",4
same,"Herbicidal efficacy, Echinochloa crusgalli","Echinochloa crusgalli [15]; post-emergence, 1,000 g/ha",6
same,"Herbicidal efficacy, Digitaria sanguinalis","Digitaria sanguinalis [16]; post-emergence, 125 g/ha",0
same,"Herbicidal efficacy, Digitaria sanguinalis","Digitaria sanguinalis [16]; post-emergence, 250 g/ha",3
same,"Herbicidal efficacy, Digitaria sanguinalis","Digitaria sanguinalis [16]; post-emergence, 500 g/ha",4
same,"Herbicidal efficacy, Digitaria sanguinalis","Digitaria sanguinalis [16]; post-emergence, 1,000 g/ha",6
same,"Herbicidal efficacy, Poa annua","Poa annua [17]; post-emergence, 125 g/ha",0
same,"Herbicidal efficacy, Poa annua","Poa annua [17]; post-emergence, 250 g/ha",3
same,"Herbicidal efficacy, Poa annua","Poa annua [17]; post-emergence, 500 g/ha",5
same,"Herbicidal efficacy, Poa annua","Poa annua [17]; post-emergence, 1,000 g/ha",6
same,"Herbicidal efficacy, Alopecurus myosuroides","Alopecurus myosuroides [18]; post-emergence, 125 g/ha",0
same,"Herbicidal efficacy, Alopecurus myosuroides","Alopecurus myosuroides [18]; post-emergence, 250 g/ha",0
same,"Herbicidal efficacy, Alopecurus myosuroides","Alopecurus myosuroides [18]; post-emergence, 500 g/ha",2
same,"Herbicidal efficacy, Alopecurus myosuroides","Alopecurus myosuroides [18]; post-emergence, 1,000 g/ha",4
